From patent US20090088323A1, “Compositions with cyclopropenes and adjuvants” (priority 2004, published 2009) come the findings set out here.

For assay [1], the system named is Tomatoes (Rutgers 39 Variety). In words: Tomato epinasty test (foliar spray to run off, then ethylene exposure). Format: in vivo. As to the method:
Tomato epinasty tests were performed as follows:
Two seeds were place in each pot. Plants that had expanded first true leaves and were between 3 and 5 inches high were used for the tomato epinasty test.
To conduct the assay, the plants were sprayed-to run off with the test 1-MCP foliar spray and allowed to dry for 4 hours in sunlight These operations were performed in a ventilated area away from the plants growing in the greenhouse so there would not be any unintended treatment to growing plants destined for later experiments.
(§1) The 1-MCP treated plants and both treated and untreated controls were placed into an SLX controlled-atmosphere shipping box and sealed. To the box, ethylene was injected through a septum, which gave a concentration of 14 ppm. The plants were held sealed for 12-14 hours in the dark with ethylene in the atmosphere. At the end of ethylene treatment, the box was opened and scored for epinasty. Scoring for epinasty was accomplished by using the following scoring system for each pot. • 1. 0% no epinasty (100% control) • 2. 20% A couple leaves show some drooping (80% control) • 3. 50% Plants show 50% of full response. Not all leaves need to show effect. (50% control) • 4. 80% Almost all leaves drooping and some show underside of leaf exposed on top. (20% control) • 5. 100% Leaves completely drooping and the underside of the leaf exposed from above. (0% control)
The score of each pot is recorded. The average of 6 or 8 pots is averaged to get a score. The percentage improvement is calculated by interpolating the percentage improvement from the control water (i.e., no additives) 1-MCP treatment.
Tomato epinasty tests were conducted using a formulation that included water, a 1-MCP α-CD complex, and sodium salt of EDTA. […] The amount of sodium salt of EDTA in each formulation was 100 ppm. In some formulations, further ingredients were included, as described in the examples below.
Tomato epinasty tests were conducted using a formulation that included water; a 1-MCP α-CD complex that contained 0. […] The amount of 1-MCP α-CD complex was chosen so that the spray formulation had 1.2 ppm of 1-MCP. The amount of sodium salt of EDTA was kept at 50 ppm in the liquid. Also included in the spray formulations were various silicone oils (0.1% by weight based on the weight of the spray).
The amount of 1-MCP α-CD complex was chosen so that the spray formulation had 1.2 ppm of 1-MCP. The amount of sodium salt of EDTA was kept at 50 ppm. Also included in the spray formulations were various silicone oils at 0.1% by weight based on the weight of the spray formulation and sodium dioctylsufosuccinate surfactant at 0.05% by weight based on the weight of the spray formulation.

In assay [2] the test system is Tomatoes (Rutgers 39 Variety). The experiment in a line: Tomato epinasty test, plants sprayed in spray hood with motorized track sprayer. Format: in vivo. Particulars: 1-MCP spray rate 20 grams/hectare, no adjuvant. As to the method:
Tomatoes (Rutgers 39 Variety Harris Seeds No 885 Lot 37729-A3) were grown in 2 ½″ square pots filled with a commercial potting mix. Two seeds were place in each pot. Plants that had expanded first true leaves and were between 3 and 5 inches high were used for the tomato epinasty test.
as §1
The score of each pot is recorded. The average of 6 or 8 pots is averaged to get a score. The percentage improvement is calculated by interpolating the percentage improvement from the control water (i.e., no additives) 1-MCP treatment. […]

For the molecule `CC1=CC1` [1-MCP, 1-methylcyclopropene], the “% Control of Epinasty” value in assay [1] (1.2 ppm 1-MCP, silicone oil 0.1 weight % / sodium dioctylsulfosuccinate 0.05 weight % (0 for control), 50 ppm EDTA sodium salt) was found to be 8%; in assay [1] (1.2 ppm 1-MCP, silicone oil 0.1 weight % in spray (0 for control), 50 ppm EDTA sodium salt), 8%; in assay [1] (70 ppb 1-MCP (as α-CD complex), no adjuvants, 100 ppm EDTA sodium salt, 14 ppm ethylene 12-14 h) it was 10%; in assay [1] (140 ppb 1-MCP (as α-CD complex), no adjuvants, 100 ppm EDTA sodium salt), 15%; in assay [1] (280 ppb 1-MCP (as α-CD complex), no adjuvants, 100 ppm EDTA sodium salt), 35%; in assay [1] (1400 ppb 1-MCP (as α-CD complex), no adjuvants, 100 ppm EDTA sodium salt) it was 85%. The “% Control of Epinasty” value in assay [2] is 26%.
